pIC50: −log10 of the molar value.
Assay: Inhibition of TNF-alpha-induced NF-kappaB p65 nuclear translocation in human A549 cells after 2 hrs by fluorescence assay

| Structure (SMILES) | pIC50 |
| --- | --- |
| O=C(/C=C/c1ccc(Cl)cc1)c1cccc(-c2cccc(F)c2)c1 | 4.61 |
| O=C(/C=C/c1cccc(Br)c1)c1cccc(-c2cccc(F)c2)c1 | 4.95 |
| COc1ccccc1/C=C/C(=O)c1cccc(-c2cccc(F)c2)c1 | 4.45 |
| COc1ccc(/C=C/C(=O)c2cccc(-c3cccc(F)c3)c2)cc1 | < 4.30 |
| COc1ccc(/C=C/C(=O)c2cccc(-c3cccc(F)c3)c2)cc1OC | 4.48 |
| COc1cccc(/C=C/C(=O)c2cccc(-c3cccc(F)c3)c2)c1OC | 4.62 |
| COc1cc(/C=C/C(=O)c2cccc(-c3cccc(F)c3)c2)ccc1O | 4.89 |
| O=C(/C=C/c1ccccc1Br)c1cccc(-c2cccc(F)c2)c1 | 4.86 |
| O=C(/C=C/c1ccc(Br)cc1)c1cccc(-c2cccc(F)c2)c1 | < 4.30 |
| O=C(/C=C/c1cccc(-c2ccc(F)cc2)c1)c1ccc(F)cc1 | < 4.30 |
| COc1ccc(/C=C/C(=O)c2ccc(N)c(-c3ccc(F)cc3)c2)cc1 | < 4.30 |
| COc1ccc(/C=C/C(=O)c2ccc(N)c(-c3ccc(F)cc3)c2)cc1OC | < 4.30 |
| COc1ccc(OC)c(/C=C/C(=O)c2ccc(N)c(-c3ccc(F)cc3)c2)c1 | 4.99 |
| COc1cc(/C=C/C(=O)c2ccc(N)c(-c3ccc(F)cc3)c2)ccc1O | 5.17 |
| COc1cc(/C=C/C(=O)c2ccc(N)c(-c3ccc(F)cc3)c2)cc(OC)c1OC | 4.93 |
| Nc1ccc(C(=O)/C=C/c2ccc(O)c(F)c2)cc1-c1ccc(F)cc1 | < 4.30 |
| COc1cc(/C=C/C(=O)c2ccc(N)c(-c3ccc(F)cc3)c2)cc(Br)c1O | < 4.30 |
| COc1ccc(-c2cc(C(=O)/C=C/c3ccc(F)cc3)ccc2N)cc1OC | 4.67 |
| COc1ccc(/C=C/C(=O)c2ccc(N)c(-c3ccc(OC)c(OC)c3)c2)c(OC)c1 | 5.77 |
| COc1ccc(OC)c(/C=C/C(=O)c2ccc(N)c(-c3ccc(OC)c(OC)c3)c2)c1 | 5.50 |
| COc1ccc(-c2cc(C(=O)/C=C/c3cccc(OC)c3OC)ccc2N)cc1OC | 4.92 |
| COc1ccc(/C=C/C(=O)c2cccc(Br)c2)cc1 | < 4.30 |
| COc1ccc(/C=C/C(=O)c2cccc(Br)c2)cc1OC | < 4.30 |
| COc1ccc(/C=C/C(=O)c2cccc(Br)c2)cc1O | < 4.30 |
| COc1ccc(/C=C/C(=O)c2cccc(-c3ccc(F)cc3)c2)cc1 | < 4.30 |
| COc1ccc(/C=C/C(=O)c2cccc(-c3ccc(F)cc3)c2)cc1OC | < 4.30 |
| COc1ccc(/C=C/C(=O)c2cccc(-c3cccc(F)c3)c2)cc1O | 5.02 |
| COc1ccc(/C=C/C(=O)c2cccc(-c3ccc(F)nc3)c2)cc1O | < 4.30 |

From BindingDB's records for doi:10.1016/j.ejmech.2012.02.023 (Sun Yat-Sen University, 2012)
